Results reported in US7563459B2, “Methods and compositions for regenerating tissue” (The United States of America as represented by the …, priority 2002, dated 2009).
Entries after “also recorded” stand apart in the source; their conditions may differ.

Columns and labels:
[1] = test system: human CD34+ (hCD34+) peripheral blood stem cells; experiment: In vivo trafficking of 111In-labeled human CD34+ stem cells (HSC) after glycoprotein pretreatment, gamma camera imaging; parameters: species or system NOD-SCID mice
[2] = test system: human mesenchymal stem cells (MSC); experiment: In vivo trafficking of 111In-labeled human mesenchymal stem cells (MSC) after glycoprotein pretreatment, gamma camera imaging; parameters: species or system NOD-SCID mice
Method: Human mesenchymal stem cells (hMSCs; PT-2501) obtained through an FDA-monitored, paid bone marrow donor program were purchased from Poietics Technologies, BioWhittaker (Walkerville, Md.). The cells were thawed according to manufacturer recommendations, resuspended, and radiolabelled in Mesenchymal Stem Cell Basal Medium (MSCBM).
^111Indium Oxine Labelling Procedure: ^111In-oxine labelling of adult human CD34+ or mesenchymal stem cells (hMSCs) was performed using a modification of the Amersham Healthcare Procedure for labelling autologous leukocytes.
Imaging procedures: Nuclear Medicine. NOD-SCID mice were anesthetized using rodent anesthesia cocktail. Once anesthetized, the mice were placed on a foam hemi-cylindrical mouse-positioning device (MPD,) and covered with a tube sock. The MPD allows better visual separation of the lungs and liver as compared to placing the mouse on a flat surface. The foam on which the mouse was placed, and the tube sock covering maintained a comfortable temperature permitting longer imaging without additional anesthesia. The MPD was placed on a narrow table between the dual heads of a Siemens E.Cam Gamma Camera and imaged statically or dynamically in 2-D or SPECT. ^57Co-Spot Marker is used to mark anatomic positions (nose, tail, cannula, etc.). The data was analyzed using a Siemens ICON system for regions of interest or percent of injected dose (e.g., liver, spleen, heart).
Gamma camera imaging using a Siemens E.Cam dual head gamma camera monitored the in vivo trafficking patterns of all human stem cells described in the following examples. Mice were placed on a Mouse Positioning Device (MPD) and placed between the detectors on the imaging platform.
MSC were obtained from BioWhittaker, (Poietics Division, cryopreserved PT-2501>750000 cells per ampoule) and labelled with ^111In as in previous examples, except that the MSC were labelled, washed, and injected in Basal Stem Cell Medium (Poietics) containing 5% human serum albumin (HSA). 0.56×10^6, ^111In-labelled, human mesenchymal stem cells (MSC) were administered via an implanted DaVinci Microport Vascular System cannula in the external jugular vein of a two-month old, female NOD-SCID mouse in 0.21 ml of basal stem cell medium containing 5% human serum albumin (HSA). Immediately prior to administration of MSC, 11.0 mg of orosomucoid was administered i.v. in 0.2 ml.
0.56×10^6, ^111In-labeled MSC were administered i.v. in 0.21 ml of basal stem cell medium containing 5% human serum albumin (HSA). […]

[3] = test system: human CD34+ (hCD34+) peripheral blood stem cells; experiment: Microscopic examination of organs: immunohistochemical staining for human CD34 and in situ hybridization for human DNA after HSC infusion; type: in vivo, NOD-SCID mice
From the text: Harvesting for tissues for histopathology: Tissues were harvested after euthanasia. After the 1-hour image, the organs were harvested and half the organ was fixed in 10% neutral buffered formalin and the other half was frozen in OTC for frozen sections. The images presented herein are from fixed tissues.
Necropsy Procedure For Collection of Mouse Tissues: An initial midline skin incision from the anterior cervical region to the brim of the pubis was made followed by an abdominal incision following linea alba from the sternum to the pubis with a lateral reflection of the abdominal wall by incision following the caudal ribs. The sternum was reflected anteriorly by cutting the ribs at approximately the level of the costochrondral junction, incising the diaphragm and pericardium as needed. Anteriorly, reflection of sternum was extended to include the ventral cervical muscles to expose the trachea. The trachea and esophagus were incised at the mid cervical area and reflected caudally, cutting attachments as necessary to remove the thoracic viscera in toto. Following removal of the thoracic viscera, the entire heart was dissected free and immersed in 10% neutral buffered formalin. […]
Mice were imaged and the biodistribution of the radiolabelled hCD34+ cells monitored as described above. […]

[4] = test system: human mesenchymal stem cells (MSC); experiment: In situ hybridization for human DNA in organs after MSC infusion; type: in vivo, NOD-SCID mice; settings: 0.56×10^6 MSC preceded by 11 mg orosomucoid i.v.
From the text: Mice were imaged and the biodistribution of the radiolabelled MSCs cells monitored as described in Example 1. […] The positions of the cannula, diaphragm, heart, lungs, and liver were verified by CT scans (coronal sections).
The positions of the cannula, diaphragm, heart, lungs, and liver were verified by CT scans. In situ hybridization confirmed the gamma camera biodistribution data.

[5] = test system: platelet aggregation induced by ADP and adrenaline; settings: reported in the literature; cited from earlier work
[6] = cells infused into the jugular vein of immunodeficient mice, preceded by an infusion of the protein

Orosomucoid: alpha-(1)-acid glycoprotein, a normal constituent of human plasma; single polypeptide chain, approximately 45% carbohydrate including 12% sialic acid
% infused cells in liver region ([1]; 0.5×10^6 HSC preceded by 11 mg orosomucoid i.v., 1 hr): 40±3%
% infused cells in liver and spleen ([1]; 0.5×10^6 HSC preceded by 11 mg orosomucoid i.v., immediately after infusion): 43±2%
111In-labeled HSC in the region of the heart (imaging, words) ([1]; 5.75×10^6 HSC preceded by 5.5 mg orosomucoid i.v.): No ^111In-labeled cells were found in the region of the heart
Organ in which hematopoietic stem cells localize (summary, words) [1, 6]: localize in the liver
% Infused Cells In Heart ([2]; 0.56×10^6 MSC preceded by 11 mg orosomucoid i.v., 0 hr): 61.7-75.5%
% Infused Cells In Heart ([2]; 0.56×10^6 MSC preceded by 11 mg orosomucoid i.v., 1 hr): 58-64%
% Infused Cells In Heart ([2]; MSC/Orosomucoid, at 12 hr (Table 1)): 61 ± 3% at 12 hr
Organ in which mesenchymal stem cells localize (summary, words) [2, 6]: predominantly localize in the heart
Tissue location of hCD34+ cells (CD34 staining, in situ hybridization for human DNA) ([3]; 0.5×10^6 HSC preceded by 11 mg orosomucoid i.v., about 1 hour after infusion): Clusters of cells with stem cell morphology could be seen in the hepatic sinusoid; also recorded: not found in the heart muscle or interventricular septum but were present in the lung
Migration of stem cells into tissue (summary, words) ([3]; hematopoietic stem cells after protein infusion): clusters of stem cells are found in the liver parenchyma
Location of human cells by in situ hybridization [4]: human cells predominantly in the heart, but not the liver
Amounts that inhibit platelet aggregation [5]: 5 to 15 mg/mL
